In patent publication US20230257430A1, “RECOMBINANT PROTEINS FOR QUANTIFICATION OF PROTEIN LEVELS” (Genentech, Inc., priority 2020, published 2023):
Peptide text beside a SMILES is read from it. * marks the point of attachment. Cbz = O=C(OCc1ccccc1)*; CH2F = FC*

Tests used:
Type in all cases: cell-based, human
[1] = test system: A549 parental, ARAF KO, BRAF KO, RAF1 (CRAF) KO cancer cells; test: Soft agar colony formation growth assay with pan-RAF inhibitor in RAF-depleted RASK (KRAS) mutant cells; details: 100 nM, 1 μM, 10 μM
Protocol: FIG. 4J is a set of photomicrographs showing the results of a soft agar colony formation growth assay for A549 cells (parental) or ARAF knockout (KO), BRAF KO, or RAF1 (CRAF) KO cancer cells treated with the pan-RAF inhibitor AZ-628 at 100 nm, 1 μM, and 10 μM concentrations. Colonies were stained with MTT dye and imaged using a GelCount imager.
FIG. 6G is a set of photomicrographs showing the results of a soft agar colony formation growth assay for the indicated cancer cells treated with non-targeting shRNAs (shNT) or shRNA targeting ARAF (shARAF), BRAF (shBRAF), or RAF1 (CRAF) (shCRAF) and treated with the pan-RAF inhibitor AZ-628 at 100 nm, 1 μM, and 10 μM concentrations or a DMSO control.
It was hypothesized that the ratio of RAF1 (CRAF):ARAF versus RAF1 (CRAF):BRAF heterodimers may be important in the growth of RASK (KRAS) mutant tumors, and that this ratio may impact the efficacy of RAF kinase inhibition. To test this hypothesis, RASK (KRAS) mutant cells depleted of individual members of the RAF kinases (ARAF, BRAF or RAF1 (CRAF)) were treated with a pan-RAF dimer inhibitor (AZ-628). […] Taken together, RAF1 (CRAF) dimerization partners appear to dictate sensitivity to MAPK inhibition.

[2] = test system: CRAF:BRAF and CRAF:ARAF dimers; test: PIKES targeted analysis (PRM-MS) of immunoprecipitated FLAG-tagged CRAF wild-type; details: 250 nM, 24 hours
Excerpt: Collected eluates were then combined with 100 fmol of QconCAT reagent and samples were processed similarly to the cell line analysis above for PRM analysis. For PRM analysis, RAW files were loaded onto Skyline (v19.1). A target peptide list was generated from the QconCAT peptides for both unlabeled and heavy-labeled peptides with transition setting filtered for precursor charges 2 and 3, ion charges 1 and 2, and y-ion types. Selected peaks from product ions were reviewed manually. Both MS1 and MS/MS filtering were set to Orbitrap mass analyzer with 60,000 resolving power. Signal was summed for the top three product ions and normalized to the heavy labeled QconCAT internal standard for peptide quantification.

[3] = test system: A549 RAF1 (CRAF) knockout (CRAF KO) cancer cells; test: Soft-agar colony formation assay in A549 RAF1 (CRAF) knockout cells with MEK or ERK inhibitor dose titration; details: for cell survival of RAF1 (CRAF)-depleted cells: increasing the dose; for cell survival of RAF1 (CRAF) ablated RASK (KRAS) mutant cells: low-dose treatment
Excerpt: FIG. 11F is a set of photomicrographs showing the results of a soft-agar colony formation assay in A549 parental and RAF1 (CRAF) knockout (CRAF KO) cancer cells upon treatment with DMSO or a MEK inhibitor (GDC-0973) at the indicated dose titrations. The colonies were labeled with MTT reagent and imaged using a GelCount imager.
FIG. 11G is a set of photomicrographs showing the results of a soft-agar colony formation assay in A549 parental and RAF1 (CRAF) knockout (CRAF KO) cancer cells upon treatment with DMSO or an ERK inhibitor (GDC-0994) at the indicated dose titrations. The colonies were labeled with MTT reagent and imaged using a GelCount imager.
Within the MAPK pathway, expression of BRAF^D631A mutation upon BRAF^wild-type loss induces cellular toxicity which impedes tumor development of RASK (KRAS) mutant lung tumors (Nieto et al., Nature, 548: 239-243, 2017; Yao et al., Nature, 548: 234-238, 2017). Importantly, pharmacological inhibition of ERK rescued tumor growth in this context (Nieto et al., Nature, 548: 239-243, 2017; Yao et al., Nature, 548: 234-238, 2017). […] Thus, oncogenic cellular stress induced by ARAF catalytic activity could be inhibited by low-dose MAPK inhibition, thereby promoting survival of RASK (KRAS) mutant cells.

MAPK signaling = test: Western blot analysis of MAPK pathway components in RASK (KRAS) mutant cancer cells; details: 250 nM, 24 hours
RAF1:BRAF heterodimers = test: Immunoprecipitation of FLAG-tagged RAF1 (CRAF) in A549 RAF1 (CRAF) knockout cells; details: 250 nM, 24 hours
Excerpt: Eluates were co-immunoprecipitated and blotted with the indicated antibodies.
To test whether RAF1 (CRAF) kinase activity is required for RASK (KRAS) mutant tumor cell growth, knockout cell lines of the three RAF isoforms were generated in a RASK (KRAS) mutant background. […] In the RAF1 (CRAF) knockout RASK (KRAS) mutant cells, stable expression of a panel of RAF1 (CRAF) mutants was established. […] Expression of RAF1 (CRAF) kinase-dead mutants including RAF1^D468N, RAF1^D486A, and RAF1^K375M(CRAF^D468N, CRAF^D486A, and CRAF^K375M) reduced pERK levels compared to cells expressing RAF1^wild-type (CRAF^wild-type) or RAF1^S259A (CRAF^S259A), a mutation which renders the RAF1 (CRAF) kinase constitutively active (FIG. 5C). RAF1 (CRAF) kinase-dead mutants either partially (RAF1^D468N (CRAF^D468N), RAF1^D486A(CRAF^D486A)) or fully (RAF1^K375M (CRAF^K375M)) rescued colony growth in RAF1 (CRAF)-deficient RASK (KRAS) mutant cells (FIGS. 4B and 5D). […] Functionally, the CRAF^K375M mutation completely abrogated MEK phosphorylation compared to CRAF^wild-type, but still rescued colony growth in RAF1-deficient RASK (KRAS) mutant cells (FIGS. 4C and 5C). […] Consistent with this, RAF1 (CRAF) kinase-dead mutants behaved like the RAF1 (CRAF) knockout, and were unable to rescue cell growth inhibition in the presence of MEK inhibitor compared to the cells expressing CRAF^wild-type (FIGS. 5E and 5F). […]

[4] = test system: ERK downstream substrates (MAPK target gene set); test: mRNA sequencing of MAPK target gene set in RASK (KRAS) mutant cells; details: RNA-sequencing
Protocol: FIG. 2E is a graph showing the log 2 fold change in expression of a MAPK target gene set determined by mRNA sequencing in cancer cells treated with shARAF, shBRAF, or shCRAF. Cells were treated with 0.5 μg/mL doxycycline (DOX) for 72 hours. Cells were treated with a MEK inhibitor (GDC-0973) for 6 hours, 250 nM (n=3) or an ERK inhibitor (GDC-0994). Data are normalized to a non-targeting control (shNT) and DMSO (no DOX).
To confirm sustained MAPK activity in spite of RAF1 (CRAF) depletion, we performed a gene expression analysis for the MAPK downstream effectors DUSP6 and SPRTY upon RAF1 (CRAF) depletion in the examined RASK (KRAS) mutant cells lines. […] In order to delineate pathway alterations upon RAF1 (CRAF) depletion versus MAPK inhibition, RNA-sequencing analysis was performed. […] Thus, RAF kinases compensate to sustain MAPK signaling in comparison to MAPK inhibition.

[5] = test system: A549 cancer cells depleted of RAF1 (CRAF); test: Soft-agar colony formation assay in A549 cells treated with shCRAF and co-treated with cell death inhibitors; details: single agent; ZVAD-FMK 20 μM, NEC1 30 μM, Bafilomycin 50 nM
Protocol: FIG. 12G is a set of photomicrographs showing the results of a soft-agar colony formation assay in A549 cancer cells upon treatment with shCRAF and co-treatment with the indicated inhibitors. […] Cells were co-treated with DMSO or inhibitors for cellular apoptosis (ZVAD-FMK, 20 μM), necroptosis (NEC1, 30 μM) or a combination of both (ZVAD-FMK, 10 μM; NEC1, 10 μM) and an autophagy inhibitor (Bafilomycin, 50 nM).
As ARAF catalytic function inhibits cell growth upon RAF1 (CRAF) loss, mechanisms by which ARAF limits growth of RASK (KRAS) mutant cells were investigated. Given that MAPK inhibition is associated with induction of cellular apoptosis (Yen et al., Cancer Cell, 34: 611-625, 2018), it was hypothesized that RAF1 (CRAF) ablation induces cell death, similar to MAPK inhibition in RASK (KRAS) mutants. […] Additionally, RAF1 (CRAF) ablation in a […] isogenic RASK (KRAS) mutant cell line (HCT116 p21^−/−) rescued cell growth inhibition mediated upon RAF1 (CRAF) loss (FIG. 12A). […] A chemical inhibitor approach was adopted to test whether cell growth inhibition upon RAF1 (CRAF) loss could be rescued by the treatment with apoptosis or autophagic inhibitors. […] Finally, a Gene Set Enrichment Analysis (GSEA) of targets involved in the apoptosis pathway was performed, but no significant enrichment of any apoptosis target gene set was observed upon acute depletion of ARAF, BRAF or RAF1 (CRAF) (FIG. 12I). […] Thus, RAF1 (CRAF) depletion promotes p21-mediated cell cycle arrest in RASK (KRAS) mutant cancer cells. Further, co-depletion of RAF1 (CRAF) and ARAF in RASK (KRAS) mutant cells abrogated the expression levels of p21 (FIG. 4E).

SMILES | cell survival of RAF1 (CRAF)-depleted cells [3] | cell survival of RAF1 (CRAF) ablated RASK (KRAS) mutant cells [3] | effect on expression of ERK downstream substrates (MAPK target gene set) [4] | rescue of cell growth in RAF1 (CRAF)-depleted RASK (KRAS) mutant cells [5] | further results
Cc1ccc(NC(=O)c2cccc(C(C)(C)C#N)c2)cc1Nc1ccc2ncn(C)c(=O)c2c1 [AZ-628] | – | – | – | – | sensitivity of colony growth to RAF dimer inhibition ([1]; ARAF ablation in RASK (KRAS) mutant cells): sensitized cells to RAF dimer inhibition; sensitivity of colony growth to RAF dimer inhibition ([1]; BRAF ablation in RASK (KRAS) mutant cells): less sensitive to RAF dimer inhibition
O=C(c1ccc(F)c(F)c1Nc1ccc(I)cc1F)N1CC(O)([C@@H]2CCCCN2)C1 [GDC-0973] | limited cell survival | promoted cell survival | induced suppression of ERK downstream substrates | – | preferential RAF dimer association of CRAF wild-type (PIKES) [2]: promoted increased CRAF: BRAF dimers in comparison to CRAF: ARAF dimers; effect on MAPK signaling (pMEK, pERK Western blot) (MAPK signaling): suppresses MAPK signaling; RAF heterodimers co-immunoprecipitated with FLAG-CRAF (RAF1:BRAF heterodimers): enriched for RAF1:BRAF heterodimers
Cn1nccc1Nc1nccc(-c2ccn([C@H](CO)c3ccc(Cl)c(F)c3)c(=O)c2)n1 [GDC-0994] | limited cell survival | promoted cell survival | induced suppression of ERK downstream substrates | – | –
CN1C(=O)C(Cc2c[nH]c3ccccc23)NC1=S (centres unmarked) [NEC1] | – | – | – | did not rescue cell growth | –
COC(=O)C[C@H](NC(=O)[C@H](C)NC(=O)[C@@H](NC(=O)OCc1ccccc1)C(C)C)C(=O)CF [Z-VAD-FMK] (Cbz-Val-Ala-Asp(OMe)-CH2F) | – | – | – | did not rescue cell growth | –
CO/C1=C\C(C)=C\[C@@H](C)[C@@H](O)[C@@H](C)C/C(C)=C/C=C/[C@H](OC)[C@@H]([C@@H](C)[C@@H](O)[C@H](C)[C@@]2(O)C[C@@H](O)[C@H](C)[C@@H](C(C)C)O2)OC1=O [bafilomycin] | – | – | – | did not rescue cell growth | –
